Test system: KRAS patient-derived spheroids with HUVEC/MSC, viability
Experiment: Anticancer human tumor 519858-162-T-J1-PDC patient-derived colon adenocarcinoma cell line growth inhibition [KRAS2]
Settings: for IC50: curve of first compound; for viability, T/C: stronger effect = lower value
Outline: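 KRAS-mutant tumor cells were grown as spheroids with HUVEC endothelial cells and human MSCs as stroma. Targeted agents were tested alone and with KRAS pathway inhibitors. Doses started at or near clinical Cmax, or 10 microM, descending half-log.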

[1] = second compound 0.1 µM, first compound 0.0316 µM
[2] = second compound 0.1 µM, first compound 0.1 µM
[3] = second compound 0.1 µM, first compound 0.316 µM
[4] = second compound 0.1 µM, first compound 1 µM
[5] = second compound 0.1 µM, first compound 3.16 µM
[6] = second compound 0.1 µM, first compound 10 µM
[7] = second compound 0.316 µM, first compound 0.0316 µM
[8] = second compound 0.316 µM, first compound 0.1 µM
[9] = second compound 0.316 µM, first compound 0.316 µM
[10] = second compound 0.316 µM, first compound 1 µM
[11] = second compound 0.316 µM, first compound 3.16 µM
[12] = second compound 0.316 µM, first compound 10 µM
[13] = second compound 1 µM, first compound 0.0316 µM
[14] = second compound 1 µM, first compound 0.1 µM
[15] = second compound 1 µM, first compound 0.316 µM
[16] = second compound 1 µM, first compound 1 µM
[17] = second compound 1 µM, first compound 3.16 µM
[18] = second compound 1 µM, first compound 10 µM
[19] = second compound 3.16 µM, first compound 0.0316 µM
[20] = second compound 3.16 µM, first compound 0.1 µM
[21] = second compound 3.16 µM, first compound 0.316 µM
[22] = second compound 3.16 µM, first compound 1 µM
[23] = second compound 3.16 µM, first compound 3.16 µM
[24] = second compound 3.16 µM, first compound 10 µM
[25] = second compound 10 µM, first compound 0.0316 µM
[26] = second compound 10 µM, first compound 0.1 µM
[27] = second compound 10 µM, first compound 0.316 µM
[28] = second compound 10 µM, first compound 1 µM
[29] = second compound 10 µM, first compound 3.16 µM
[30] = second compound 10 µM, first compound 10 µM
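Note: compound exposure lasted seven days before readout.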
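Throughout, for viability, T/C: 100% = DMSO vehicle control viability.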

Compound: CC(C)NCC(C(=O)N1CCN(c2ncnc3c2C(C)CC3O)CC1)c1ccc(Cl)cc1 (stereo not given) + CNCc1ccccc1-c1csc(C(C)Nc2nc(C)nc3cc(OC)c(OC)cc23)c1
- IC50 (second compound 0.1 µM): > 10000 nM
- IC50 (second compound 0.316 µM): > 10000 nM
- IC50 (second compound 1 µM): > 10000 nM
- IC50 (second compound 3.16 µM): 3880 nM
- IC50 (second compound 10 µM): < 31.6 nM
- viability, T/C [1]: 88.2%
- viability, T/C [2]: 81.7%
- viability, T/C [3]: 94.9%
- viability, T/C [4]: 93.7%
- viability, T/C [5]: 89.2%
- viability, T/C [6]: 88%
- viability, T/C [7]: 88.5%
- viability, T/C [8]: 91.6%
- viability, T/C [9]: 76.3%
- viability, T/C [10]: 88.1%
- viability, T/C [11]: 92.5%
- viability, T/C [12]: 93.1%
- viability, T/C [13]: 81.7%
- viability, T/C [14]: 76.2%
- viability, T/C [15]: 71.1%
- viability, T/C [16]: 73%
- viability, T/C [17]: 85.2%
- viability, T/C [18]: 79.9%
- viability, T/C [19]: 42.8%
- viability, T/C [20]: 59.8%
- viability, T/C [21]: 60%
- viability, T/C [22]: 58.3%
- viability, T/C [23]: 47.7%
- viability, T/C [24]: 43.8%
- viability, T/C [25]: 0.36%
- viability, T/C [26]: 0.39%
- viability, T/C [27]: 0.34%
- viability, T/C [28]: 0.3%
- viability, T/C [29]: 0.82%
- viability, T/C [30]: 0.78%

Compound: CC(=O)Nc1cccc(-n2c(=O)n(C3CC3)c(=O)c3c(Nc4ccc(I)cc4F)n(C)c(=O)c(C)c32)c1 + CNCc1ccccc1-c1csc(C(C)Nc2nc(C)nc3cc(OC)c(OC)cc23)c1
- IC50 (second compound 0.1 µM): 5.36 nM
- IC50 (second compound 0.316 µM): 1.38 nM
- IC50 (second compound 1 µM): 0.356 nM
- IC50 (second compound 3.16 µM): < 0.1 nM
- IC50 (second compound 10 µM): < 0.1 nM
- viability, T/C (second compound 0.1 µM, first compound 0.0001 µM): 70.2%
- viability, T/C (second compound 0.1 µM, first compound 0.000316 µM): 73.4%
- viability, T/C (second compound 0.1 µM, first compound 0.001 µM): 60.1%
- viability, T/C (second compound 0.1 µM, first compound 0.00316 µM): 67.2%
- viability, T/C (second compound 0.1 µM, first compound 0.01 µM): 29.7%
- viability, T/C [1]: 13.9%
- viability, T/C (second compound 0.316 µM, first compound 0.0001 µM): 50.7%
- viability, T/C (second compound 0.316 µM, first compound 0.000316 µM): 79.1%
- viability, T/C (second compound 0.316 µM, first compound 0.001 µM): 47.9%
- viability, T/C (second compound 0.316 µM, first compound 0.00316 µM): 36.4%
- viability, T/C (second compound 0.316 µM, first compound 0.01 µM): 30.9%
- viability, T/C [7]: 12.2%
- viability, T/C (second compound 1 µM, first compound 0.0001 µM): 63.3%
- viability, T/C (second compound 1 µM, first compound 0.000316 µM): 50.7%
- viability, T/C (second compound 1 µM, first compound 0.001 µM): 37.9%
- viability, T/C (second compound 1 µM, first compound 0.00316 µM): 30.6%
- viability, T/C (second compound 1 µM, first compound 0.01 µM): 16.5%
- viability, T/C [13]: 6.33%
- viability, T/C (second compound 3.16 µM, first compound 0.0001 µM): 41%
- viability, T/C (second compound 3.16 µM, first compound 0.000316 µM): 30.4%
- viability, T/C (second compound 3.16 µM, first compound 0.001 µM): 17.7%
- viability, T/C (second compound 3.16 µM, first compound 0.00316 µM): 3.54%
- viability, T/C (second compound 3.16 µM, first compound 0.01 µM): 1.47%
- viability, T/C [19]: 1.15%
- viability, T/C (second compound 10 µM, first compound 0.0001 µM): 0.28%
- viability, T/C (second compound 10 µM, first compound 0.000316 µM): 0.38%
- viability, T/C (second compound 10 µM, first compound 0.001 µM): 0.25%
- viability, T/C (second compound 10 µM, first compound 0.00316 µM): 0.25%
- viability, T/C (second compound 10 µM, first compound 0.01 µM): 0.22%
- viability, T/C [25]: 0.31%

Compound: CC(C)NCC(C(=O)N1CCN(c2ncnc3c2C(C)CC3O)CC1)c1ccc(Cl)cc1 (stereo not given) + C=CC(=O)N1CCN(c2nc(OCC3CCCN3C)nc3c2CCN(c2cccc4cccc(C)c24)C3)CC1CC#N
- IC50 (second compound 0.0316 µM): > 10000 nM
- IC50 (second compound 0.1 µM): > 10000 nM
- IC50 (second compound 0.316 µM): > 10000 nM
- IC50 (second compound 1 µM): > 10000 nM
- IC50 (second compound 3.16 µM): 1930 nM
- viability, T/C (second compound 0.0316 µM, first compound 0.0316 µM): 84.8%
- viability, T/C (second compound 0.0316 µM, first compound 0.1 µM): 84.9%
- viability, T/C (second compound 0.0316 µM, first compound 0.316 µM): 79.5%
- viability, T/C (second compound 0.0316 µM, first compound 1 µM): 85.4%
- viability, T/C (second compound 0.0316 µM, first compound 3.16 µM): 85.9%
- viability, T/C (second compound 0.0316 µM, first compound 10 µM): 77.5%
- viability, T/C [1]: 95.2%
- viability, T/C [2]: 91.6%
- viability, T/C [3]: 78.4%
- viability, T/C [4]: 78%
- viability, T/C [5]: 90.3%
- viability, T/C [6]: 74.6%
- viability, T/C [7]: 64.7%
- viability, T/C [8]: 84.2%
- viability, T/C [9]: 75.5%
- viability, T/C [10]: 90%
- viability, T/C [11]: 82.5%
- viability, T/C [12]: 87%
- viability, T/C [13]: 72%
- viability, T/C [14]: 72.2%
- viability, T/C [15]: 48.3%
- viability, T/C [16]: 70.5%
- viability, T/C [17]: 81.9%
- viability, T/C [18]: 83.3%
- viability, T/C [19]: 70.9%
- viability, T/C [20]: 55.8%
- viability, T/C [21]: 80.8%
- viability, T/C [22]: 55.1%
- viability, T/C [23]: 50.7%
- viability, T/C [24]: 41.5%

Compound: COc1cc(Nc2ncc3c(n2)-c2ccc(Cl)cc2C(c2c(F)cccc2OC)=NC3)ccc1C(=O)O + CC1OCC2(CCN(c3cnc(Sc4ccnc(N)c4Cl)c(N)n3)CC2)C1N
- IC50 (second compound 0.1 µM): > 10000 nM
- IC50 (second compound 0.316 µM): > 10000 nM
- IC50 (second compound 1 µM): > 10000 nM
- IC50 (second compound 3.16 µM): 31.6 nM
- IC50 (second compound 10 µM): > 10000 nM
- viability, T/C [1]: 84.6%
- viability, T/C [2]: 67.9%
- viability, T/C [3]: 77.1%
- viability, T/C [4]: 63.4%
- viability, T/C [5]: 62%
- viability, T/C [6]: 73.3%
- viability, T/C [7]: 69.3%
- viability, T/C [8]: 62.8%
- viability, T/C [9]: 88.1%
- viability, T/C [10]: 75.7%
- viability, T/C [11]: 63%
- viability, T/C [12]: 89%
- viability, T/C [13]: 60.4%
- viability, T/C [14]: 58.7%
- viability, T/C [15]: 57.9%
- viability, T/C [16]: 49.7%
- viability, T/C [17]: 66.5%
- viability, T/C [18]: 111%
- viability, T/C [19]: 55.4%
- viability, T/C [20]: 58%
- viability, T/C [21]: 45.7%
- viability, T/C [22]: 42.9%
- viability, T/C [23]: 71.2%
- viability, T/C [24]: 71.1%
- viability, T/C [25]: 73%
- viability, T/C [26]: 48.9%
- viability, T/C [27]: 49.5%
- viability, T/C [28]: 53.4%
- viability, T/C [29]: 74.9%
- viability, T/C [30]: 78%
